Results on four molecules are retold here after patent US20220411362A1, “DITERPENOID COMPOUNDS THAT ACT ON PROTEIN KINASE C (PKC)” (K-Gen, Inc., priority 2019, published 2022).

The target in assay [1] is T1, C1b domain of human PKCε (Homo sapiens, UniProt Q02156).
T1 construct: Genes encoding C1b domains of human PKCα, δ, ε, θ, and PKD1 (PKCμ) were synthesized; made in house; host or cells: E. coli BL21(DE3)
The assay is described as follows: Competitive 3H-PDBu binding to C1b domain of PKCε. In short, it runs like this:
(§1)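 Ki derived by Cheng-Prusoff from IC50, with each protein batch's measured ^3H-PDBu Kd. Displacement of ^3H-PDBu from E. coli-produced GST-fused C1b domains or full-length human PKC was run 10 min at 37°C plus 20 min on ice, with filter capture and scintillation counting.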

For assay [2], the system named is A549 non-small cell lung cancer cell line. The assay is described as follows: Proliferation of A549 (CellTiter Glo). The note with it: read-out: IC50 μM (A549 Cell Line). Format: cell-based. In short, it runs like this:
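Luminescent CellTiter Glo read-out after 96 h compound exposure of A549 cells plated at 1,000/well and rested 24 h at 37° C; DMSO kept ≤0.25%, dilutions 3-fold. Inhibition taken relative to DMSO-treated wells; IC50, relative IC50 and top inhibition derived by curve fitting.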
In general terms: ATP-based viability assays read luminescence as a measure of living cells.

Assay [3] deals with phosphorylation of PKCμ, PKCδ and Erk1/2 in A549 lung cancer cells. In kind it is cell-based. Conditions: 3 μM, 30 minutes, Western blot. The protocol: Cells were then treated with different drugs at indicated concentrations for 30 minutes. […] Imagequant LAS4000 (GE) was used to scan membranes if secondary antibodies anti-mouse IgG HRP conjugate or anti-rabbit IgG HRP conjugate (dilutions from 1:2000-1:10000) were used. For ProteinSimple Wes system, manufacture's procedure was followed (ProteinSimple 12-230 kDa Wes Separation Module) for sample preparation, loading, running, and data analysis.
Phosphorylation of these sites has been linked to acute activation or catalytic activity of the PKC isoforms and Erk1/2. High level of phosphorylation indicates strong activation.
A general note: Immunoblotting shows a protein as a band on a membrane.

The test system of assay [4] is Namalwa (Lymphoma) cell line. Description: Proliferation of Namalwa. The note with it: for IC50: read-out: IC50 in μM Namalwa (Lymphoma); for ratio of (IC50 of K01)/(IC50 of compound), Namalwa: value in parenthesis. Format: cell-based. As for the experimental part:
(§2) The diterpenoid compounds were tested in A549, a non-small cell lung cancer cell line harboring a K-Ras activating mutation. Briefly, A549 cells at a density of 1,000 cells/well were seeded in 96-well plates and incubated at 37° C. for 24 hours. A series of different concentrations of compound stocks (500×) were prepared by 3-fold serial dilution in DMSO. These compounds were further diluted in culture media and then added to cells so that the final DMSO concentration was not exceeding 0.25%. After 96 hours of incubation, 50 μL of CellTiter Glo reagent (Promega) was added to each well and luminescence was measured after 10 minutes using EnVision (PerkinElmer). Luminescence from cells treated with DMSO alone was set as Max and % of inhibition was calculated as follows: Inhibition %=(Max−Sample value)/Max×100. Data was analyzed using XL-fit software (ID Business Solutions Ltd.) and IC50, relative IC50, and % of top inhibition was calculated. Some of the compounds in this disclosure were very potent in blocking proliferation of A549 lung cancer cells at low nM range. In addition, potency of inhibiting A549 proliferation correlated well with its binding affinity to PKCs for this series of compounds. In other words, higher affinity binders had stronger inhibitory effects on A549 proliferation. This further support the notion that activation, rather than inhibition, of certain PKC isoforms is required to block proliferation of cancer cells, some of which may harbor K-Ras mutations. This is in sharp contrast to previous literature and common belief that inhibition of PKC is necessary to block cancer cell growth (Kang, 2014, New Journal of Science, 2014:1-36). Data presented here is in agreement with recent findings that many loss-of-function but not gain-of-function mutations of PKC isoforms have been identified in many human cancers (Antal et al., 2015, Cell, 160:489-502).
(§3) The compounds in this disclosure were tested for their potency in blocking proliferation of a few other cancer cells lines, including K-Ras mutant pancreatic cell lines Panc2.13 and KP-4, leukemia cell line HL-60, and lymphoma cell lines Namalwa and Mino. Similar procedures as in Example 67 were followed. Initial cell numbers seeded in 96-well plates were different for different cell lines: 3000 cells/well for Panc2.13; 800-1000 cells/well for KP-4; 5000 cells/well for HL-60; 5000-10000 cells/well for Namalwa and Mino. A ratio ratio of (IC50 of K01)/(IC50 of compound) (data in parenthesis in Table 5) was used to normalize the compound potency from different assay batches to a common comparator […].

Assay [5] concerns Panc2.13 (Pancreatic) cell line. Description: Proliferation of Panc2.13. In kind it is cell-based. The note with it: for IC50: read-out: IC50 in μM Panc2.13 (Pancreatic); for ratio of (IC50 of K01)/(IC50 of compound), Panc2.13: value in parenthesis. The protocol: as §2, §3
Assay [6] addresses T2, C1b domain of human PKCθ (Homo sapiens, UniProt Q04759).
T2 construct: Genes encoding C1b domains of human PKCα, δ, ε, θ, and PKD1 (PKCμ) were synthesized; made in house; host or cells: E. coli BL21(DE3)
T2 sequence (Q04759 231-281 limits assumed): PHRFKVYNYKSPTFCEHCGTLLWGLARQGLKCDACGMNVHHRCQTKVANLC
Description: Competitive 3H-PDBu binding to C1b domain of PKCθ. In short, it runs like this: as §1

Assay [7] concerns KP-4 (Pancreatic) cell line. Description: Proliferation of KP-4. In kind it is cell-based. The protocol:
as §2, §3

Assay [8] relates to HL-60 (Leukemia) cell line. Description: Proliferation of HL-60. In kind it is cell-based. Conditions: for ratio of (IC50 of K01)/(IC50 of compound), HL-60: value in parenthesis. As for the experimental part: as §2, §3
In assay [9] the target is T3, C1b domain of human PKCδ (Homo sapiens, UniProt Q05655).
T3 construct: Genes encoding C1b domains of human PKCα, δ, ε, θ, and PKD1 (PKCμ) were synthesized; made in house; host or cells: E. coli BL21(DE3)
The assay is described as follows: Competitive 3H-PDBu binding to C1b domain of PKCδ. The note with it: 3H-PDBu competition. In short, it runs like this: as §1

For assay [10], the system named is Mino (Lymphoma) cell line. The assay is described as follows: Proliferation of Mino. Format: cell-based. Conditions: for IC50: read-out: IC50 in μM Mino (Lymphoma); for ratio of (IC50 of K01)/(IC50 of compound), Mino: value in parenthesis. As for the experimental part: as §2, §3
The target in assay [11] is T4, C1b domain of human PKCα (Homo sapiens, UniProt P17252).
T4 construct: Genes encoding C1b domains of human PKCα, δ, ε, θ, and PKD1 (PKCμ) were synthesized; made in house; host or cells: E. coli BL21(DE3)
Description: biochemical. Format: binding. Conditions: 3H-PDBu competition. A digest of the protocol: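 Competitive binding against 3H-PDBu tracer used recombinant GST-C1b fusion protein expressed in E. coli. Incubation ran 10 min at 37°C with shaking, then 20 min on ice, followed by filtration and scintillation counting of trapped 3H-PDBu. Affinity was derived using each protein preparation's experimentally determined Kd for 3H-PDBu.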

Assay [12] addresses T5, C1b domain of human PKD1 (PKCμ) (Homo sapiens, UniProt Q15139).
T5 construct: Genes encoding C1b domains of human PKCα, δ, ε, θ, and PKD1 (PKCμ) were synthesized; made in house; host or cells: E. coli BL21(DE3)
T5 sequence (Q15139 270-320 limits assumed): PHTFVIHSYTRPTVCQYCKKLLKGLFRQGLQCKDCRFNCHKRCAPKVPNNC
The assay is described as follows: biochemical. Format: binding. A digest of the protocol:
as §1

Assay [13] relates to PANC1 cells. The assay is described as follows: Sphere formation assay (cancer stemness). In kind it is cell-based. The note with it: Homo sapiens, PANC-1, read-out: concentration exhibiting at least 50% inhibition on the sphere forming efficiency. As for the experimental part: A group of diterpenoid compounds of the present disclosure were tested to assess their effects on blocking formation of spheres from cancer cell lines such as PANC1, a K-Ras mutant pancreatic cell line. Briefly, PANC1 cells were harvested, re-suspended as single cell suspensions, counted and seeded into Ultra Low Attachment Culture 96-well plate (Corning, Cat #3474) at 100 cells/well in 100 μl of complete media (with 10% FBS) containing 2% Matrigel (Corning, Cat #354234) and DMSO or compounds. Six replicates per condition were seeded. The seeded cells were placed in the 37° C. tissue culture incubator. 10 μl of low serum containing media (with 0.1% FBS) was added to each well every week. Spheres formed after 3-4 weeks were counted. Sphere forming efficiency was expressed as percentage of # of spheres/# of cells seeded.

The IC50 is the concentration needed to halve the response being measured.

Structures are written as SMILES. pIC50, pKi: −log10 of the molar value. Read-outs that look alike come from different tables or passages of the source.

T3 sequence (Q05655 230-280 limits assumed): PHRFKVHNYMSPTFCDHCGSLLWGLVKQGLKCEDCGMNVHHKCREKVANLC
T1 sequence (Q02156 242-292 limits assumed): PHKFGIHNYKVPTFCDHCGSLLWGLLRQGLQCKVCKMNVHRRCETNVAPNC

Take `CC1=C[C@H]2[C@@]3(O)[C@H](C)C[C@]4(OC(=O)[C@@H](N)Cc5ccccc5)[C@H]([C@@H]3C=C(CO)C[C@]2(O)C1=O)C4(C)C` [Compound K101-C1303]: the pKi in [1] (C1b domain of human PKCε, 3H-PDBu competition, read-out: Ki PKCε) was 6.70 to 7.00; in assay [6] (C1b domain of human PKCθ, 3H-PDBu competition, read-out: Ki PKCθ) it was 7.22 to 7.52; in assay [9] (read-out: Ki PKCδ), 7.22 to 7.52; in [11] (read-out: Ki PKCα), 6.10 to 6.40; in assay [12] (C1b domain of human PKD1 (PKCμ), 3H-PDBu competition, read-out: Ki PKD1/PKCμ) it was 7.52 to 9.00. Moreover, the IC50 was in the range of 0.6 to 1 µM in [2] (A549, 96 hours incubation, CellTiter Glo); 0.2 to 0.6 µM in assay [4] (Namalwa); 1 to 2 µM in assay [5] (Panc2.13); 0.6 to 1 µM in [7] (KP-4, read-out: IC50 in μM KP-4 (Pancreatic)); 0.2 to 0.6 µM in assay [8] (HL-60, read-out: IC50 in μM HL-60 (Leukemia)); 0.1 to 0.2 µM in [10] (Mino). Besides, the “phosphorylation of PKC (PKD/PKCμ), PKCδ and Erk1/2” value in assay [3] was “induced phosphorylation”. The “ratio of (IC50 of K01)/(IC50 of compound), Namalwa” value in assay [4] (Namalwa) was 0.19. In assay [5] (Panc2.13), the “ratio of (IC50 of K01)/(IC50 of compound), Panc2.13” value is on record as 0.75. The “ratio of (IC50 of K01)/(IC50 of compound), HL-60” value in [8] (HL-60) was 0.9. In addition, in [10] (Mino), the “ratio of (IC50 of K01)/(IC50 of compound), Mino” value was 0.57.
Regarding `CC1=C[C@H]2[C@@]3(O)[C@H](C)C[C@]4(OC(=O)C(C)(C)C)[C@H]([C@@H]3C=C(CO)C[C@]2(O)C1=O)C4(C)C` [Compound K101-C1308], the pKi in assay [1] is 7.52 to 9.00; in assay [6], 7.22 to 7.52; in assay [9] (Ki PKCδ), 7.52 to 9.00; in [11] (Ki PKCα), 6.00 to 6.10; in assay [12], 8.00 to 8.30. In addition, the IC50 in assay [2] (Homo sapiens, A549, 96 h) was 0.06 to 0.1 µM; in assay [4] it was 0.03 to 0.06 µM; in assay [5] it was 0.1 to 0.2 µM; in assay [7] (Homo sapiens, KP-4, read-out: IC50 in μM KP-4 (Pancreatic)), 0.1 to 0.2 µM; in [8] (Homo sapiens, HL-60, read-out: IC50 in μM HL-60 (Leukemia)), 0.06 to 0.1 µM; in assay [10] (Homo sapiens, MINO), 0.01 to 0.03 µM. In addition, the pIC50 in [13] was at least 6.82. For the same molecule, the “ratio of (IC50 of K01)/(IC50 of compound), Namalwa” value in assay [4] (Namalwa) turned out to be 1.38. In addition, the “ratio of (IC50 of K01)/(IC50 of compound), Panc2.13” value in assay [5] (Panc2.13) turned out to be 6.29. Moreover, the “ratio of (IC50 of K01)/(IC50 of compound), HL-60” value in assay [8] (HL-60) is listed as 5.29. Moreover, in assay [10] (Mino), the “ratio of (IC50 of K01)/(IC50 of compound), Mino” value came out at 6.82.
As to `CC1=C[C@H]2[C@@]3(O)[C@H](C)C[C@]4(OC(=O)CCc5ccncc5)[C@H]([C@@H]3C=C(CO)C[C@]2(O)C1=O)C4(C)C` [Compound K101-C1315], in assay [2] (Homo sapiens, A549, 96 h), the IC50 lay in the range of 1 to 2 µM. In addition, the “phosphorylation of PKC (PKD/PKCμ), PKCδ and Erk1/2” value in [3] is “induced phosphorylation”. The pKi was 6.70 to 7.00 in assay [9] (Ki PKCδ), under 5.10 in [11] (Ki PKCα) and 7.22 to 7.52 in assay [12].
Taken in the same sequence, the figures for `CC1=C[C@H]2[C@@]3(O)[C@H](C)C[C@]4(OC(=O)CCc5ccccn5)[C@H]([C@@H]3C=C(CO)C[C@]2(O)C1=O)C4(C)C` [Compound K101-C1316] were 0.6 to 1 µM, “induced phosphorylation”, 6.70 to 7.00, 5.10 to 5.22 and 7.22 to 7.52.
